Source: US7101915B1, “P-terphenyl compounds” (Shionogi & Co., Ltd., priority 1996, dated 2006)
In brackets after ≈: the same amount, converted by molar mass.

Assays:
Type in all cases: cell-based
Conditions in all cases: EL-4, TPA 10 ng/ml, 24 hours, ELISA; for IC50: Mus musculus, T-cell
[1] = system: IL-2 production of mouse T cell strain EL-4 (TPA); test: Suppressive effect on the cytokine production of mouse T cell strain EL-4: IL-2
Experimental: (§1) Experiment 8 Suppressive Effect on the Cytokine Production of a Mouse T Cell Strain EL-4 In 48-well plate were added 2×10^5 mouse T cell strain EL-4 which were suspended in 0.2 ml of 1% fetal bovine serum-added RPMI 1640 medium (2 mM of sodium bicarbonate, 50 units/ml of penicillin, 50 μg/ml of streptomycin and 5×10^−5 M of 2-mercaptoethanol were added) and the compound of the present invention of a predetermined concentration. TPA was added as a cell stimulater at a final concentration of 10 ng/ml to adjust a final volume of each well to 0.4 ml. Each compound of the present invention was dissolved in DMSO and diluted with the above RPMI 1640 medium, and then for added at a final concentration of 100 ng/ml or less. The cells in the 48-well plate were cultivated in an incubator keeping the humidity 100%, carbon dioxide 5% and air 95% at 37° C. for 24 hours to collect a supernatant of each well. The amount of IL-2, IL-4 and IL-5 released in the medium of each well were measured with the ELISA kit (Amersham K. K.) to be taken as an index of the cytokine production of the cells. TPA free group (-TPA) was used as a control.

[2] = system: IL-4 production of mouse T cell strain EL-4 (TPA); test: Suppressive effect on the cytokine production of mouse T cell strain EL-4: IL-4
Experimental: as §1

[3] = system: IL-5 production of mouse T cell strain EL-4 (TPA); test: Suppressive effect on the cytokine production of mouse T cell strain EL-4: IL-5
Experimental: as §1

Row | Structure (SMILES) | IC50 IL-2 [1] | IC50 IL-4 [2] | IC50 IL-5 [3] | IC50 [1] | IC50 [2] | IC50 [3]
1 | COc1cc(-c2ccc(OS(C)(=O)=O)cc2)c(OC)c(OS(C)(=O)=O)c1-c1ccc(OCc2ccccc2)c(C=O)c1 [Compound I-83] | >10 µg/mL | 0.14 µg/mL (≈ 0.229 µM) | 1 µg/mL (≈ 1.63 µM) | – | – | –
2 | COc1cc(-c2ccc(OS(C)(=O)=O)cc2)c(OC)c(C)c1-c1ccc(OCCC=C(C)C)c(OS(C)(=O)=O)c1 [Compound I-228] | >1 µg/mL | 0.021 µg/mL (≈ 0.0356 µM) | 0.03 µg/mL (≈ 0.0508 µM) | – | – | –
3 | COc1cc(-c2ccc(C(F)(F)F)cc2)c(OC)c(O)c1-c1ccc(OCC=C(C)C)c(O)c1 [Compound I-190] | >0.1 µg/mL | 0.007 µg/mL (≈ 0.0148 µM) | 0.01 µg/mL (≈ 0.0211 µM) | – | – | –
4 | COc1cc(-c2ccc(F)cc2)c(OC)c(O)c1-c1ccc(OCc2ccccc2)c(O)c1 [Compound I-4] | >0.5 µg/mL | 0.014 µg/mL (≈ 0.0314 µM) | 0.12 µg/mL (≈ 0.269 µM) | – | – | –
5 | COC(=O)c1ccc(-c2cc(OC)c(-c3ccc(OCc4ccccc4)c(OS(C)(=O)=O)c3)c(OS(C)(=O)=O)c2OC)cc1 [Compound I-238] | >1 µg/mL | 0.035 µg/mL (≈ 0.0545 µM) | >1 µg/mL | – | – | –
6 | COc1cc(-c2ccc(O)cc2)c(OC)c(O)c1-c1ccc(OCC=NNC(N)=O)c(O)c1 [Compound I-302] | >1 µg/mL | 0.025 µg/mL (≈ 0.0551 µM) | 0.28 µg/mL (≈ 0.617 µM) | – | – | –
7 | COc1cc(-c2ccc(OS(C)(=O)=O)cc2)c(OC)c(OS(C)(=O)=O)c1-c1ccc(OCc2ccc(-c3ccccc3)cc2)c(OS(C)(=O)=O)c1 [Compound I-403] | >1 µg/mL | 0.013 µg/mL (≈ 0.0172 µM) | >1 µg/mL | – | – | –
8 | COc1cc(-c2ccc(O)cc2)c(OC)c(C)c1-c1ccc(OCCC=C(C)C)c(O)c1 [Compound I-229] | >1 µg/mL | 0.042 µg/mL (≈ 0.0967 µM) | 0.08 µg/mL (≈ 0.184 µM) | – | – | –
9 | COc1cc(-c2ccc(O)cc2)c(OC)c(O)c1-c1ccc(OCc2cc(C)cc(C)c2)c(O)c1 [Compound I-209] | >0.2 µg/mL | 0.014 µg/mL (≈ 0.0296 µM) | 0.012 µg/mL (≈ 0.0254 µM) | – | – | –
10 | COC(=O)c1ccc(-c2cc(OC)c(-c3ccc(OCc4ccc(C)cc4)c(OS(C)(=O)=O)c3)c(OS(C)(=O)=O)c2OC)cc1 [Compound I-239] | – | – | – | > 1 µg/mL | 0.054 µg/mL (≈ 0.0822 µM) | 0.9 µg/mL (≈ 1.37 µM)
11 | COc1cc(-c2ccc(OS(C)(=O)=O)cc2)c(OC)c(OS(C)(=O)=O)c1-c1ccc(OS(=O)(=O)c2ccc(C)cc2)c(OS(C)(=O)=O)c1 [Compound I-395] | >1 µg/mL | 0.001 to 0.01 µg/mL | >1 µg/mL | – | – | –
12 | COc1cc(-c2ccc(O)cc2)c(OC)c(O)c1-c1ccc(SCc2ccccn2)c(O)c1 [Compound I-223] | 1 µg/mL (≈ 2.17 µM) | 0.016 µg/mL (≈ 0.0347 µM) | 0.045 µg/mL (≈ 0.0975 µM) | – | – | –
13 | COc1cc(-c2ccc(C(F)(F)F)cc2)c(OC)c(OS(C)(=O)=O)c1-c1ccc(OCC=C(C)C)c(OS(C)(=O)=O)c1 [Compound I-189] | >10 µg/mL | 0.1 µg/mL (≈ 0.159 µM) | 10 µg/mL (≈ 15.9 µM) | – | – | –
14 | COc1cc(-c2ccc(SC)cc2)c(OC)c(O)c1-c1ccc(OCc2ccccc2)c(O)c1 [Compound I-233] | >1 µg/mL | 0.012 µg/mL (≈ 0.0253 µM) | 0.0038 µg/mL (≈ 0.00801 µM) | – | – | –
15 | COc1cc(-c2c(OC)cc(-c3ccc(OS(C)(=O)=O)cc3)c(OC)c2CO)c(OC)cc1OCc1ccc(C)cc1 [Compound I-368] | >1 µg/mL | 0.072 µg/mL (≈ 0.121 µM) | 0.38 µg/mL (≈ 0.639 µM) | – | – | –
16 | COc1cc(-c2ccc(OS(C)(=O)=O)cc2)c(OC)c(CO)c1-c1ccc(OCc2ccccc2)c(CO)c1 [Compound I-243] | – | – | – | > 0.5 µg/mL | 0.063 µg/mL (≈ 0.114 µM) | > 0.55 µg/mL
17 | COc1cc(-c2ccc(O)cc2)c(OC)c(O)c1-c1ccc(OC/C=C/CO)c(O)c1 [Compound I-296] | >1 µg/mL | 0.07 µg/mL (≈ 0.165 µM) | 0.047 µg/mL (≈ 0.111 µM) | – | – | –
18 | COc1cc(-c2ccc(N(C)C)cc2)c(OC)c(OS(C)(=O)=O)c1-c1ccc(OCC=C(C)C)c(OS(C)(=O)=O)c1 [Compound I-242] | >1 µg/mL | 0.1 µg/mL (≈ 0.165 µM) | 0.88 µg/mL (≈ 1.45 µM) | – | – | –

Row | Structure (SMILES) | IC50 IL-2 [1] | IC50 IL-4 [2] | IC50 IL-5 [3] | IC50 [1] | IC50 [2] | IC50 [3]
19 | COc1cc(-c2ccc(OCC=C(C)C)c(OS(C)(=O)=O)c2)c(OC)cc1-c1ccc(OS(C)(=O)=O)cc1 [Compound I-70] | >2 µg/mL | 0.0002 µg/mL (≈ 0.000355 µM) | 1 µg/mL (≈ 1.78 µM) | – | – | –
20 | COc1cc(-c2ccc(O)cc2)c(OC)c(O)c1-c1ccc(OCC(C)=C(C)C)c(O)c1 [Compound I-213] | >1 µg/mL | 0.025 µg/mL (≈ 0.0573 µM) | 0.023 µg/mL (≈ 0.0527 µM) | – | – | –
21 | COc1cc(-c2ccc(C)cc2)c(OC)c(O)c1-c1ccc(OCCC=C(C)C)c(O)c1 [Compound I-279] | >1 µg/mL | 0.038 µg/mL (≈ 0.0875 µM) | 0.09 µg/mL (≈ 0.207 µM) | – | – | –
22 | COc1cc(-c2ccc(O)cc2)c(OC)c(O)c1-c1ccc(S(=O)(=O)CC=C(C)C)c(O)c1 [Compound I-226] | 0.88 µg/mL (≈ 1.87 µM) | 0.017 µg/mL (≈ 0.0361 µM) | 0.3 µg/mL (≈ 0.638 µM) | – | – | –
23 | COc1cc(-c2ccc(OS(C)(=O)=O)cc2)c(OC)c(OS(C)(=O)=O)c1-c1cc(C=O)c(OCC=C(C)C)c(OS(C)(=O)=O)c1 [Compound I-128] | >10 µg/mL | 0.14 µg/mL (≈ 0.204 µM) | 0.45 µg/mL (≈ 0.657 µM) | – | – | –
24 | COc1cc(-c2ccc(O)cc2)c(OC)c(O)c1-c1ccc(OC/C=C(\C)CCC=C(C)C)c(O)c1 [Compound I-37] | >0.5 µg/mL | 0.007 µg/mL (≈ 0.0143 µM) | 0.11 µg/mL (≈ 0.224 µM) | – | – | –
25 | COc1cc(-c2ccc(OS(C)(=O)=O)cc2)c(OC)c(C)c1-c1ccc(OCc2ccc(C)cc2)c(OS(C)(=O)=O)c1 [Compound I-230] | >1 µg/mL | 0.013 µg/mL (≈ 0.0212 µM) | 0.02 µg/mL (≈ 0.0326 µM) | – | – | –
26 | COc1cc(-c2ccc(O)cc2)c(OC)c(O)c1-c1ccc(OCc2ccc(C)cc2C)c(O)c1 [Compound I-309] | >0.5 µg/mL | 0.029 µg/mL (≈ 0.0614 µM) | 0.01 µg/mL (≈ 0.0212 µM) | – | – | –
27 | COc1cc(-c2ccc(OS(C)(=O)=O)cc2)c(OC)c(OS(C)(=O)=O)c1-c1ccc(OCc2ccccc2)c(C(N)=O)c1 [Compound I-148] | >10 µg/mL | 0.1 µg/mL (≈ 0.159 µM) | 11 µg/mL (≈ 17.5 µM) | – | – | –
28 | COc1ccccc1-c1cc(OC)c(-c2ccc(OCc3ccc(C)cc3)c(O)c2)c(O)c1OC [Compound I-282] | >0.5 µg/mL | <0.005 µg/mL | 0.13 µg/mL (≈ 0.275 µM) | – | – | –
29 | COC(=O)c1ccc(-c2cc(OC)c(-c3ccc(OCc4ccccc4)c(O)c3)c(O)c2OC)cc1 [Compound I-237] | >0.1 µg/mL | 0.017 µg/mL (≈ 0.0349 µM) | 0.1 µg/mL (≈ 0.206 µM) | – | – | –
30 | COc1cc(-c2ccc(OS(C)(=O)=O)cc2)c(OC)c(OS(C)(=O)=O)c1-c1ccc(OCc2ccc3ccccc3n2)c(OS(C)(=O)=O)c1 [Compound I-307] | >1 µg/mL | 0.052 µg/mL (≈ 0.0713 µM) | 0.023 µg/mL (≈ 0.0315 µM) | – | – | –
31 | COc1cc(-c2ccc(F)cc2)c(OC)c(C=O)c1-c1ccc(OCC=C(C)C)c(F)c1 [Compound I-379] | >1 µg/mL | 0.088 µg/mL (≈ 0.201 µM) | >1 µg/mL | – | – | –
32 | COc1cc(-c2ccc(OS(C)(=O)=O)cc2)c(OC)c(OS(C)(=O)=O)c1-c1ccc(OCc2ccc(C(C)C)cc2)c(OS(C)(=O)=O)c1 [Compound I-305] | >1 µg/mL | 0.01 µg/mL (≈ 0.0139 µM) | 0.34 µg/mL (≈ 0.472 µM) | – | – | –
33 | COc1cc(-c2ccc(OS(C)(=O)=O)cc2)c(OC)c(OS(C)(=O)=O)c1-c1ccc(OCc2c(C)cc(C)cc2C)c(OS(C)(=O)=O)c1 [Compound I-202] | >2 µg/mL | <0.02 µg/mL | <0.02 µg/mL | – | – | –
34 | COc1cc(-c2cccc(C(F)(F)F)c2)c(OC)c(O)c1-c1ccc(OCCC=C(C)C)c(O)c1 [Compound I-220] | >1 µg/mL | 0.15 µg/mL (≈ 0.307 µM) | 0.72 µg/mL (≈ 1.47 µM) | – | – | –
35 | COc1cc(-c2ccc(OS(C)(=O)=O)cc2)c(OC)c(OS(C)(=O)=O)c1-c1ccc(OCCC=C(C)C)cc1 [Compound I-387] | >1 µg/mL | 0.075 µg/mL (≈ 0.13 µM) | 0.04 µg/mL (≈ 0.0694 µM) | – | – | –
